# Residues, ends and D or L forms follow the SMILES beside them.
# Legend:
# [1] = Solubility of IN-derived peptides in rat plasma; type: physicochemical; details: LC-MS
# Procedure: Analytic HPLC-MS was performed using an Agilent 1260 series Liquid Chromatography/Mass Selective Detector (MSD) equipped with an electrospray interface and a UV diode array detector. Analyses were performed on an ACE C8, 50 × 3.0 mm, 3 µm column, with an isocratic 0.1% formic acid/ACN eluent, at a rate of 1 ml/min over a period of 5 min. UV absorption was measured at 280 nm, 220 nm, and 215–395 nm. MS analysis was performed with ESI (electron spray ionization) with a positive ionization method.
# Four reaction systems were prepared; INS and INR2 in human plasma, INS and INR2 in rat plasma (Supplementary Table 2). Freshly prepared 10 mg/ml stock solution of the peptides was injected into plasma or PBS solution (1:1). The mixture was diluted with methanol to precipitate the plasma proteins. The samples were filtered through PTFE 0.45 µm filters and run in LC-MS. Samples were taken at the following times: 0, 15, 30, 60, 120, 240, and 480 min and after 24 h.
# Plasma solubility was determined at 0 min and was verified at 60 min (if no degradation was observed).
# [2] = system: CHO-WBL cells; assay: Chromosomal aberration assay (genotoxicity); type: cell-based, Chinese hamster; details: for % Gaps / % Structural aberration without gaps / Cells with endoreduplication (%) / Cells with polyploidy (%) / Cytotoxicity (%) / % Structural aberrant cells: harvest 22 h; for Cytotoxicity (%): cell growth inhibition relative to negative control; for % Structural aberrant cells: cells with only gaps not included
# Procedure: All cells were cultured for 22 h after initiation of INS treatment.
# [3] = system: HeLa cells; design: method as in PMID 20517955; details: cited from earlier work
# [4] = system: H1975 lung cancer cells; assay: Cytotoxicity of peptides without lentiviral particles, MTT; type: cell-based, human; details: peptide alone, three times over ten days
# Procedure: H1975 lung cancer cells were treated three times over the course of 10 days (on days 2, 4, and 7) with different concentrations of the tested peptides. Following ten days of incubation, cells were analyzed for potential toxicity using a quantitative cell viability test, the MTT assay.
# [5] = INS 10 µg/mL, +S9, 3 h treatment
# [6] = INS 10 µg/mL, −S9, 3 h treatment
# [7] = INS 10 µg/mL, −S9, 22 h treatment
# [8] = INS 25 µg/mL, +S9, 3 h treatment
# [9] = INS 25 µg/mL, −S9, 3 h treatment
# [10] = INS 25 µg/mL, −S9, 22 h treatment
# [11] = INS 50 µg/mL (precipitate), +S9, 3 h treatment
# [12] = INS 50 µg/mL (precipitate), −S9, 3 h treatment
# [13] = INS 50 µg/mL (precipitate), −S9, 22 h treatment
smiles,measurement,setting,value
CC[C@H](C)[C@H](NC(=O)[C@H](Cc1ccccc1)NC(=O)[C@@H](NC(=O)[C@H](C)NC(=O)[C@H](CCSC)NC(=O)[C@H](CCC(N)=O)NC(=O)[C@@H](NC(=O)[C@H](C)NC(=O)[C@@H](NC(=O)[C@@H](N)Cc1c[nH]c2ccccc12)[C@@H](C)O)C(C)C)C(C)C)C(=O)N[C@@H](Cc1c[nH]cn1)C(=O)N[C@@H](CC(N)=O)C(=O)N[C@@H](Cc1ccccc1)C(=O)N[C@@H](CCCCN)C(=O)N[C@@H](CCCNC(=N)N)C(=O)N[C@@H](CCCCN)C(=O)O [INS] (H-WTAVQMAVFIHNFKRK-OH),Solubility,[1]; % of 5 mg/mL sample,80.2%
same,Solubility,"[1]; from 5 mg/mL sample (10 mg/ml stock into plasma 1:1), at 0 min, verified at 60 min, methanol precipitation, PTFE 0.45 µm filtration",4.01 mg/mL
same,Induction of structural chromosomal aberrations (conclusion),"[2]; 10-50 µg/mL, ±S9, 3 and 22 h",negative
same,% Gaps,[2]; [5],0.3%
same,% Structural aberration without gaps,[2]; [5],1.0%
same,Cells with endoreduplication (%),[2]; [5],0.0%
same,Cells with polyploidy (%),[2]; [5],0.0%
same,Cytotoxicity (%),[2]; [5],5%
same,% Structural aberrant cells,[2]; [5],1.0%
same,% Gaps,[2]; [6],0.7%
same,% Structural aberration without gaps,[2]; [6],1.3%
same,Cells with endoreduplication (%),[2]; [6],0.0%
same,Cells with polyploidy (%),[2]; [6],0.0%
same,Cytotoxicity (%),[2]; [6],4%
same,% Structural aberrant cells,[2]; [6],1.3%
same,% Gaps,[2]; [7],0.7%
same,% Structural aberration without gaps,[2]; [7],1.0%
same,Cells with endoreduplication (%),[2]; [7],0.0%
same,Cells with polyploidy (%),[2]; [7],0.0%
same,Cytotoxicity (%),[2]; [7],−1%
same,% Structural aberrant cells,[2]; [7],1.0%
same,% Gaps,[2]; [8],0.3%
same,% Structural aberration without gaps,[2]; [8],1.0%
same,Cells with endoreduplication (%),[2]; [8],0.3%
same,Cells with polyploidy (%),[2]; [8],0.0%
same,Cytotoxicity (%),[2]; [8],−1%
same,% Structural aberrant cells,[2]; [8],1.0%
same,% Gaps,[2]; [9],0.3%
same,% Structural aberration without gaps,[2]; [9],1.0%
same,Cells with endoreduplication (%),[2]; [9],0.3%
same,Cells with polyploidy (%),[2]; [9],0.0%
same,Cytotoxicity (%),[2]; [9],−10%
same,% Structural aberrant cells,[2]; [9],1.0%
same,% Gaps,[2]; [10],0.0%
same,% Structural aberration without gaps,[2]; [10],1.0%
same,Cells with endoreduplication (%),[2]; [10],0.0%
same,Cells with polyploidy (%),[2]; [10],0.0%
same,Cytotoxicity (%),[2]; [10],−3%
same,% Structural aberrant cells,[2]; [10],1.0%
same,% Gaps,[2]; [11],0.3%
same,% Structural aberration without gaps,[2]; [11],1.7%
same,Cells with endoreduplication (%),[2]; [11],7.3%
same,Cells with polyploidy (%),[2]; [11],0.0%
same,Cytotoxicity (%),[2]; [11],46%
same,% Structural aberrant cells,[2]; [11],1.7%
same,% Gaps,[2]; [12],0.7%
same,% Structural aberration without gaps,[2]; [12],1.3%
same,Cells with endoreduplication (%),[2]; [12],0.0%
same,Cells with polyploidy (%),[2]; [12],0.0%
same,Cytotoxicity (%),[2]; [12],−7%
same,% Structural aberrant cells,[2]; [12],1.3%
same,% Gaps,[2]; [13],0.3%
same,% Structural aberration without gaps,[2]; [13],1.3%
same,Cells with endoreduplication (%),[2]; [13],0.0%
same,Cells with polyploidy (%),[2]; [13],0.0%
same,Cytotoxicity (%),[2]; [13],−1%
same,% Structural aberrant cells,[2]; [13],1.3%
same,Cell permeability,[3],cell-permeable
same,Toxicity,[3],non-toxic
same,Effect on lung cancer cell viability,[4],no effect

# Reference: article PMC8175240, “Integrase-derived peptides together with CD24-targeted lentiviral particles inhibit the growth of CD24 expressing cancer cells” (Oncogene, 2021)
